One assay addresses TOP2A (Homo sapiens, UniProt P11388). Briefly: in vitro TOP2A kDNA decatenation assay. Type of assay: biochemical.
A further assay deals with MYC (Homo sapiens, UniProt P01106). Description: biochemical.

As a reminder, the Kd is a measure of binding affinity in units of concentration. A lower Kd goes with tighter binding.

Sequence of TOP2A (P11388 whole entry): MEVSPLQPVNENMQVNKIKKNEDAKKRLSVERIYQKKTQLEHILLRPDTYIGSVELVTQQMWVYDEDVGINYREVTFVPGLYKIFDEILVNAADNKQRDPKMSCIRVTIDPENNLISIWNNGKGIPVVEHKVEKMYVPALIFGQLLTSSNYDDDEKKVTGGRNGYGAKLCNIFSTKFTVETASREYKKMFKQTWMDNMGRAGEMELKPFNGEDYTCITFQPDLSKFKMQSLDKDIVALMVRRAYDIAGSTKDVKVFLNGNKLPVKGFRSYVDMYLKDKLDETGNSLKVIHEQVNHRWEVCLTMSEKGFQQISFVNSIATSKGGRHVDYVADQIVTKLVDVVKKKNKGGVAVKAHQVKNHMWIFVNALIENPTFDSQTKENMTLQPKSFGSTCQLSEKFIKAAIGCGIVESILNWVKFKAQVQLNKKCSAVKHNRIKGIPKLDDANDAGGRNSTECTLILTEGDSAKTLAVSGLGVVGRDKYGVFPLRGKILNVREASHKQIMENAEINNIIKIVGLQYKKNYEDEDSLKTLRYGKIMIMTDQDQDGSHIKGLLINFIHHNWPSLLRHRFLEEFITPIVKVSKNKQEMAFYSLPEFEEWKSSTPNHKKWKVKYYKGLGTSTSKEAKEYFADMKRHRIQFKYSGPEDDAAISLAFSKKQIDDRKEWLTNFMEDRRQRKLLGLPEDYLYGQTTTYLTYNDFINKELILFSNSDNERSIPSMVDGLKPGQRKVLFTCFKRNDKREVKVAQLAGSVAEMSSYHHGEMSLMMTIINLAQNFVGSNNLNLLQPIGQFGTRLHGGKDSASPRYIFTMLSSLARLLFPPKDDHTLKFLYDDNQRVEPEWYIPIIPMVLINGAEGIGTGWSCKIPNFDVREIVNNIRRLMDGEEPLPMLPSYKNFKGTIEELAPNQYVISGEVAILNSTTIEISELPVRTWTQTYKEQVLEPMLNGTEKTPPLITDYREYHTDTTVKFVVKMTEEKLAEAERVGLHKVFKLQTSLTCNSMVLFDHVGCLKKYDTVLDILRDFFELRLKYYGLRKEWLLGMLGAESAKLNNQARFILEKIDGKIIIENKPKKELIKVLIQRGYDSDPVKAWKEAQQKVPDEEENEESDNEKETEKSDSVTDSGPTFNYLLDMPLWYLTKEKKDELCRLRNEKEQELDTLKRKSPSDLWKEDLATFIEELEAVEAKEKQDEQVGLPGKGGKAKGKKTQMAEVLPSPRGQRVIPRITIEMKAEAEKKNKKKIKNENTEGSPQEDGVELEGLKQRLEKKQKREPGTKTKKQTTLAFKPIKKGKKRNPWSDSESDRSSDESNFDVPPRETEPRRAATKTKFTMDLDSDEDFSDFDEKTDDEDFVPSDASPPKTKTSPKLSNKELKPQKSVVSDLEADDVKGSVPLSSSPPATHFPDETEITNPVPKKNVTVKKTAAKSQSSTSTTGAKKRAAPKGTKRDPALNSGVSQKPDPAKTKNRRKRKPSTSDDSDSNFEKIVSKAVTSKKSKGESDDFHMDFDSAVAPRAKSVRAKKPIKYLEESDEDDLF
Sequence of MYC (P01106 368-454 limits assumed): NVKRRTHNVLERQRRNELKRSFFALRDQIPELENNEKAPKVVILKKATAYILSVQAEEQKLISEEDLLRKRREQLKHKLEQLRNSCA

As for `COc1cccc2c1C(=O)c1c(O)c3c(c(O)c1C2=O)C[C@@](O)(C(=O)CO)C[C@@H]3O[C@H]1C[C@H](N)[C@H](O)[C@H](C)O1` [doxorubicin, reference compound], the “in vitro TOP2A kDNA decatenation assay” value at TOP2A is listed as ~ 3 μmol/L.

Consider `CCN(CC)CC[n+]1ccc2c(C)c3[nH]c4ccccc4c3c(C)c2c1` [MYCMI-7, 2-(5,11-Dimethyl-6H-25-pyrido[4,3-b]carbazol-2-yl)-N,N-diethylethanamine acetate], for which, at TOP2A, the “in vitro TOP2A kDNA decatenation assay” value is over 10 µmol/L. The compound also returned a dissociation constant Kd on MYC of about 4 µM.

Source of the values: publication PMC9980915, “MYCMI-7: A Small MYC-Binding Compound that Inhibits MYC: MAX Interaction and Tumor Growth in a MYC-Dependent Manner” (Cancer Research Communications, 2022).
